Results on three compounds are retold here after patent US20080234241A1, “MELANOGENESIS INHIBITORS AND WHITENING AGENTS COMPRISING ERGOSTEROL DERIVATIVE AND COMPOSITIONS CONTAINING ERGOSTEROL DERIVATIVE” (Sakamoto Bio Co., Ltd., priority 2000, published 2008).

Molecules are shown by their SMILES.

For assay [1], the system named is B 16 IOF7 melanoma cells. As to the kind of experiment: Melanogenesis inhibitory effect in B16 melanoma cells. To be noted: for Minimum concentration for inhibition of melanogenesis: B16 cells cultivated 72 hours at 37° C., melanin from absorbance at 470 nm against methanol-treated control as 100%. Type of assay: cell-based, mouse. As to the method:
Melanogenesis inhibitory activity was evaluated using B 16 IOF7 melanoma cells (obtained from the Akita Research Institute of Food and Brewing, Japan), which are melanogenic cells of mouse cells, by application to the cells of an isolated form of Formula (1) described above in a solution diluted with the couture medium, thereby observing the production of melanin. The B16 cells, cultivated to a 70% confluent level in a flask, were washed with PBS and then were treated with a trypsin solution to isolate the cells. The same volume of a serum-containing culture medium (E-MEM, 10% FBS) as that of the trypsin was added to the flask, followed by collecting the cells and centrifuging (800 rpm, 5 min.). After this phase of the process, the number of cells was counted and adjusted to approximately 10^4 cells/ml in the culture medium (E-MEM, 10% FBS). A diluted solution of Formula (1) was prepared by placing 20 μL of sterile PBS on a cell culturing plate (a type for adherent cells) along with 20 μL of a Formula (1) solution, thereby doubling dilution (a final concentration in the culture medium from 100 μg/mL to […]). The control arbutin (a final concentration in the culture medium from 140 μg/mL to 0.22 μg/mL) in methanol was similarly diluted.
Then 80 μL of the cell suspension was added to the diluted sample solution (20 μL) on the plate, and the mixture was cultivated in a CO2 incubator at 37° C. for 72 hours. Melanogenesis in the cells was observed under a microscope. In cases where melanogenesis was confirmed microscopically, the culture medium was removed, and the cell layer was treated with 300 μL of 1N NaOH to dissolve the melanin, where the concentration of the melanin formed was determined from measurement of absorbance at 470 nm. The levels of Formula (1) and arbutin used were varied to determine their minimum concentrations needed for inhibiting melanogenesis, against the value of the methanol-treated control as 100%.

Assay [2] concerns pigment deposition on brachial skin. As to the kind of experiment: Measurement of whitening effect: lotion applied to brachial skin after exposure to sun light. To be noted: for Decision (whitening effect): lotion, group of 20 men, applied twice everyday for 5 weeks starting five days after sun exposure; for Whitening effect of lotions, result in words: lotions of Table 2, 20 men, 5 weeks. The assay is classed as in vivo, men. How it is done: Preparation the Alcohol and Water Phases are Prepared, Mixed, and Dissolved
A test group made up of 20 men was exposed to sun light in summer for four hours per day from […]. for 2 days. Five days after the exposure to the sun light, the lotion described above was applied to the group on the brachial skin twice everyday, once each in the morning and in the evening for 5 weeks.

In the case of `OC[C@H]1O[C@@H](Oc2ccc(O)cc2)[C@H](O)[C@@H](O)[C@@H]1O` [Arbutin, arbutin, reference compound], the “Minimum concentration for inhibition of melanogenesis” value in assay [1] stood at 0.88 µg/mL.
Regarding `CC(C)[C@@H](C)/C=C/[C@@H](C)[C@H]1CC[C@@H]2[C@]1(C)CCC1[C@]23C=C[C@]2(C[C@@H](O)CC[C@]12C)OO3` (stereo partly drawn) [Formula (1), 5α,8α-epidioxy-(22E,24R)-orgosta-6,22-dien-3β-ol], the “Microscopic observation of melanogenesis in B16 cells” value in assay [1] (72 hours culture, compared with arbutin) was “inhibited more extensively by Formula (1) than by arbutin”. For the same compound, the “Minimum concentration for inhibition of melanogenesis” value in assay [1] came out at 0.045 µg/mL. The “Decision (whitening effect)” value is reported as “B (11 to 15 out of the group rated “Effective” or “More effective”)” in assay [2] (content 0.2 % w/w) and “A (16 or more out of the group rated “Effective” or “More effective”)” in assay [2] (content 1.0 % w/w). Moreover, in assay [2], the “Whitening effect of lotions, result in words” value was “prevented pigment deposition and gave a whitening effect”.
On to `Oc1ccc(O)cc1` [hydroquinone, reference compound], for which, in assay [2] (content 1.0 % w/w), the “Decision (whitening effect)” value was “C (6 to 10 out of the group rated “Effective” or “More effective”)”. Further, the “Whitening effect of lotions, result in words” value in assay [2] is given as “nor Comparative example 2 (hydroquinone) was effective”.
